Test results: ChEMBL document CHEMBL3421545, “Discovery of novel non-covalent inhibitors selective to the β5-subunit of the human 20S proteasome” (Eur J Med Chem, 2015); call rule not given here

Assays:
[1] = molecular target: T1, Proteasome Macropain subunit MB1 (Homo sapiens, UniProt P28074); experiment: Inhibition of chymotrypsin-like activity of human beta-5 subunit of 20S proteasome using Suc-LLVY-AMC as substrate by fluorometer analysis
T1 sequence (P28074 whole entry): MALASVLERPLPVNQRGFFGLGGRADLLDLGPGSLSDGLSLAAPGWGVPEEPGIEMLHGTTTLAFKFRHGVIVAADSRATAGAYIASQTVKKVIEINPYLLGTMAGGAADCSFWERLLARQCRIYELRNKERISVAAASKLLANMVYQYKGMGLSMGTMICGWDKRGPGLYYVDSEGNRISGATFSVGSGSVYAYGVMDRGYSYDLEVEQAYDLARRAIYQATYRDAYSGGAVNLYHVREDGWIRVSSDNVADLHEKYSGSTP

[2] = molecular target: Proteasome subunit beta type-7, β2, trypsin-like (Homo sapiens) (UniProt Q99436); experiment: Inhibition of trypsin-like activity of human beta-2 subunit of 20S proteasome using Bz-VGR-AMC as substrate at 10 ug/ml by fluorometer analysis
Sequence of Proteasome subunit beta type-7, β2, trypsin-like (Homo sapiens) (Q99436 whole entry, looked up): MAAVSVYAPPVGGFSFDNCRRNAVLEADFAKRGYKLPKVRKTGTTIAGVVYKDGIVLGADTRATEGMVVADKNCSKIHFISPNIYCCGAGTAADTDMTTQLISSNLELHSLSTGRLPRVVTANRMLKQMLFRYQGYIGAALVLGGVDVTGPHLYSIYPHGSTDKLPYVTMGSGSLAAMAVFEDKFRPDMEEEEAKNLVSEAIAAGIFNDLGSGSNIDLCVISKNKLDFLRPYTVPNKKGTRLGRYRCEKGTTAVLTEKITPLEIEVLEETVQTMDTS

[3] = molecular target: Proteasome subunit beta type-6, β1, caspase-like (Homo sapiens) (UniProt P28072); experiment: Inhibition of caspase-like activity of human beta-1 subunit of 20S proteasome using (Z)-LLE-bNA as substrate at 10 ug/ml by fluorometer analysis
Sequence of Proteasome subunit beta type-6, β1, caspase-like (Homo sapiens) (P28072 whole entry, looked up): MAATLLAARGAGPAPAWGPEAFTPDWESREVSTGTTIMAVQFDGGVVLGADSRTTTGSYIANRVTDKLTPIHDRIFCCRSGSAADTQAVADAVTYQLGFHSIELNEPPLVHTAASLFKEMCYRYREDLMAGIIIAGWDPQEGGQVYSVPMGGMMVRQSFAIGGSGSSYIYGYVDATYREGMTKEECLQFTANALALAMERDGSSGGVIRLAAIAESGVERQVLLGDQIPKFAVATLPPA

[4] = Inhibition of chymotrypsin-like activity of 20S proteasome isolated from human THP1 cells using Suc-Leu-Leu-Val-Tyr-MCA as substrate by fluorometer analysis; assay type: cell-free; settings: thp-1

Compound | IC50 ([1]; read-out: IC50) [µM] | IC50 [1] | other results
CC(C)[C@H](NC(=O)[C@H](CC(N)=O)NC(=O)Cc1cccc(Oc2ccccc2)c1)C(=O)O |  | Not Active | 
CC(C)[C@H](NC(=O)[C@H](CC(N)=O)NC(=O)Cc1cccc(Oc2ccccc2)c1)C(=O)N[C@H](C(=O)O)[C@H](C)O | 13.9 |  | 
CC(C)[C@H](NC(=O)[C@H](CC(N)=O)NC(=O)Cc1cccc(Oc2ccccc2)c1)C(=O)NCCO | 17.2 |  | 
COc1ccc(CNC(=O)[C@@H](NC(=O)[C@H](CCC(N)=O)NC(=O)Cc2cccc(Oc3ccccc3)c2)C(C)C)c(O)c1 | 1.63 |  | 
COc1ccc(CNC(=O)[C@@H](NC(=O)[C@H](CC(N)=O)NC(=O)Cc2cccc(Oc3ccccc3)c2)C(C)C)c(O)c1 | 0.66 |  | inhibition [2]: < 50%; inhibition [3]: < 50%
COc1ccc(CNC(=O)[C@@H](NC(=O)[C@H](CC(N)=O)NC(=O)Cc2cccc(Oc3ccccc3)c2)C(C)C)c(OC)c1 |  | Not Active | 
C/C=C\NC(=O)[C@H]1NC(=O)[C@@H](CC(N)=O)NC(=O)[C@@H](NC(=O)C(=O)[C@@H](C)CC)Cc2ccc(O)c(c2)-c2cccc3c2NC(=O)[C@@]3(O)[C@@H]1O |  |  | IC50 [4]: 0.0054 µM
COc1ccc(CNC(=O)[C@@H](NC(=O)[C@H](CCCCN)NC(=O)Cc2cccc(Oc3ccccc3)c2)C(C)C)c(O)c1 |  | Not Active | 
COc1ccc(CNC(=O)[C@@H](NC(=O)[C@H](CCCCNC(=O)OCc2ccccc2)NC(=O)Cc2cccc(Oc3ccccc3)c2)C(C)C)c(O)c1 | 11.7 |  | 
CCCNC(=O)[C@@H](NC(=O)[C@H](CC(N)=O)NC(=O)Cc1cccc(Oc2ccccc2)c1)C(C)C | 13 |  | 
CC(C)[C@H](NC(=O)[C@H](CC(N)=O)NC(=O)Cc1cccc(Oc2ccccc2)c1)C(=O)NCCc1ccccc1 |  | Not Active | 

Further lines, with some results ahead:

IC50 ([1]; read-out: IC50) [µM] | IC50 [1] | Compound | other results
0.29 |  | COC(=O)[C@@H](NC(=O)[C@@H](NC(=O)[C@H](CC(N)=O)NC(=O)Cc1cccc(Oc2ccccc2)c1)C(C)C)[C@H](C)O | inhibition [2]: < 50%; inhibition [3]: < 50%
0.92 |  | CC(C)[C@H](NC(=O)[C@H](CC(N)=O)NC(=O)Cc1cccc(Oc2ccccc2)c1)C(=O)N[C@H](C(=O)OCc1ccccc1)[C@H](C)O | inhibition [2]: < 50%; inhibition [3]: < 50%
 | Not Active | CC(C)[C@H](NC(=O)[C@H](CC(N)=O)NC(=O)Cc1cccc(Oc2ccccc2)c1)C(=O)N[C@@H](C)c1ccccc1 | 
17.3 |  | CC(C)[C@H](NC(=O)[C@H](CC(N)=O)NC(=O)Cc1cccc(Oc2ccccc2)c1)C(=O)OCc1ccccc1 | 
 | Not Active | CC(C)[C@H](NC(=O)[C@H](CC(N)=O)NC(=O)Cc1cccc(Oc2ccccc2)c1)C(=O)N[C@H](C)c1ccccc1 | 
